Laboratory results from patent US10517862B2, “Fused heterocyclic compound derivative and application thereof” (NHWA PHARMA. CORPORATION, priority 2015, dated 2019).
Read-outs that look alike come from different tables or passages of the source.

Tests used:
[1] = test system: D2 receptor; assay: D2 receptor binding assay (3H-Spiperone, rat striatum membrane); conditions: test compound final concentration 10^−5 M; 3H-Spiperone; rat striatum membrane
Experimental: Preparation of D2 Membrane
Rats were decapitated on ice. […] The weight of the homogenized tubes were adjusted using a balance, and centrifugation was conducted. […] Centrifugation was conducted.
(§1) Materials for the Receptor Binding Assay

[2] = biological target: T1, 5HT1A receptor (Rattus norvegicus, UniProt P19327); assay: 5HT1A receptor binding assay (3H-8-OH-DPAT, rat striatum membrane); conditions: test compound final concentration 10^−5 M; 3H-8-OH-DPAT; rat striatum membrane; read-out: 5HT1A Inhibition rate (%)
T1 construct: Rats were decapitated on ice; from tissue; host or cells: rat brain striatum
T1 sequence (P19327 1-422): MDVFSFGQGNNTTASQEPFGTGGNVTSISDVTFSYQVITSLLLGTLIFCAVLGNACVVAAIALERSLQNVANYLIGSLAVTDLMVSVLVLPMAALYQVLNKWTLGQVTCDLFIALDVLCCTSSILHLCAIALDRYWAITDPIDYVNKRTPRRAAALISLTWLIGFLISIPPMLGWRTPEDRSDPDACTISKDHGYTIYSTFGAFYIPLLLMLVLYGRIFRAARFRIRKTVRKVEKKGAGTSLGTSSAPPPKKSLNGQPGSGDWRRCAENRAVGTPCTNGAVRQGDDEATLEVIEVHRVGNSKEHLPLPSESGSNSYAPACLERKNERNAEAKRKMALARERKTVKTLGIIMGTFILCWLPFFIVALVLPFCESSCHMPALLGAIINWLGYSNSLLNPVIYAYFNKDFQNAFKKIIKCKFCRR
Experimental: Preparation of 5HT1A Membrane
Rats were decapitated on ice. […] Incubation at 37° C. was conducted for 10 min. […] Centrifugation was conducted at 12000 rpm, 4° C. for 20 min. […] Centrifugation was conducted and repeated 3 times.
as §1

[3] = biological target: T2, D3 receptor (Homo sapiens, UniProt P35462); assay: D3 receptor assay ([3H]-Spiperone, HEK-293 cells); format: binding; conditions: test compound final concentration 10 μmol/L; [3H]-Spiperone; HEK-293 cells; read-out: D3 Inhibition rate (%)
T2 construct: expressed in transfected cells; host or cells: HEK-293
T2 sequence (P35462 whole entry): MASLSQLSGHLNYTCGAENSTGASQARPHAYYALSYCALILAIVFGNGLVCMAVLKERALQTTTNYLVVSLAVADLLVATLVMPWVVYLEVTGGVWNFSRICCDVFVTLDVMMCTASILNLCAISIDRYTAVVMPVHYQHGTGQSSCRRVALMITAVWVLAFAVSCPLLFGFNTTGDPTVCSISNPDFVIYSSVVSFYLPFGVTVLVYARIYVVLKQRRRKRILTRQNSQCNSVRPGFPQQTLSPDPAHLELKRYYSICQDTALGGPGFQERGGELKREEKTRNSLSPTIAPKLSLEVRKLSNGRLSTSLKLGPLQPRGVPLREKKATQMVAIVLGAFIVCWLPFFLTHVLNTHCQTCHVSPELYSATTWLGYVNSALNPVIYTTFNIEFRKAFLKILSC
Experimental: Then the cells were centrifuged at 1000 rpm for 5 min, the supernatant was discarded, and the cell pellets was collected and stored in a −20° C. fridge for reservation. It was re-suspended with Tris-Cl (pH 7.4) when the assay was performed.
Tris was divided into aliquots by Genetimes Technology Inc.
Competitive binding test for receptors: 20 μl of each of the test compounds and 20 μl of the radioactive ligand together with 160 μl of the receptor proteins were added into the reaction tubes, and the final concentrations of the test compound and the positive drug were all 10 μmol/L. After 50 min of incubation in 30° C. water bath, the tubes were immediately moved to ice bath to terminate the reactions. GF/C glass fiber filter papers were used for rapid sucking filtration on a Millipore cell sample collector, 3 ml of elution buffer (50 mM Tris-HCl, PH 7.4) was applied for 3 times, and microwave was applied for 4-5 min for drying. The filter paper was moved into 0.5 ml centrifuge tube, and 500 μl of liposoluble scintillation cocktail was added. The tubes were allowed to stand still for over 30 min in dark, and the intensities of radioactivity were measured by a counter.

[4] = biological target: T3, 5HT2C receptor (Rattus norvegicus, UniProt P08909); assay: 5HT2C receptor binding assay ([3H]-mesulergine, rat striatum membrane); conditions: test compound final concentration 10^−5 M; [3H]-mesulergine; rat striatum membrane; read-out: 5HT2C Inhibition rate (%)
T3 construct: from tissue; host or cells: rat brain striatum
T3 sequence (P08909 33-460): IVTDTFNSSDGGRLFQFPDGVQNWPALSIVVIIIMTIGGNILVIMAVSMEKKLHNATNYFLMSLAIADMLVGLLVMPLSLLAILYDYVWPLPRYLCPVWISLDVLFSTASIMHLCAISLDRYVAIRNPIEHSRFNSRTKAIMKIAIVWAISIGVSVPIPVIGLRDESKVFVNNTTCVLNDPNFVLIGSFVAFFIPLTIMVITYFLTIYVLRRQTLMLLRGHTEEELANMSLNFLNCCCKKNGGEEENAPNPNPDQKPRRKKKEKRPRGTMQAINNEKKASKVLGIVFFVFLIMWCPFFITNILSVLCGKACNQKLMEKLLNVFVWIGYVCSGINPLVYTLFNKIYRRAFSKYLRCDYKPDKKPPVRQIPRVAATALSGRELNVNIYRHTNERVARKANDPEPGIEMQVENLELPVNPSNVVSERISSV
Experimental: Preparation of 5HT2C Membrane
Rats were decapitated on ice. […] Centrifugation was conducted.
as §1

[5] = test system: α1 norepinephrine receptor; assay: α1 norepinephrine receptor binding assay (3H-prazosin, rat cortex membrane); conditions: test compound final concentration 10^−5 M; 3H-prazosin; rat cortex membrane
Text: Preparation of Receptor Membrane of Norepinephrine
α1 Norepinephrine Receptor Binding Assay

[6] = test system: mice of Kunming breed; assay: MK-801 induced high activity in mice; format: in vivo; conditions: Mus musculus, 1.5 h, po, MK-801 0.1 mg/kg ip, spontaneous activities in 90 min
Experimental: Example 54: MK-801 Induced High Activity—the In Vivo Anti-Schizophrenia Activity of the Compounds
Healthy mice of Kunming breed (with half male and half female, (20±2) g) were provided by Qinglongshan Animal Cultivation Center, Nanjing.
Ascorbic acid was provided by Sinopharm Chemical Reagent Co. Ltd.
MK-801 was produced by Sigma Company, USA; the formulation method: 0.1% vitamin C was used to formulate a 1 mg/ml solution.
Test positive drugs: haloperidol, clozapine, risperidone, olanzapine, aripiprazole, ziprasidone, quetiapine.
Tween 80, with the concentration of 10%.
Mice with qualified body weight were selected, and randomly divided into blank group, model group, positive control group (risperidone group) and drug group. […] 1 h after the administration, 0.1% concentration of ascorbic acid was intraperitoneally injected to the blank group at 0.1 ml/10 g; and the model group, the positive control group (30 min) and the drug group were intraperitoneally injected the MK-801 solution at 0.1 mg/kg. Subsequently, the spontaneous activities of the mice of each group in 90 min were measured.

[7] = test system: mice of Kunming breed; assay: Apomorphine induced clambering assay of mice; format: in vivo; conditions: for ED50: Mus musculus, read-out: Apomorphine induced clambering (ED50, po, mg/kg)
Experimental: Healthy mice of Kunming breed (KM) (male, with body weight of 18-22 g) were provided by Qinglongshan Animal Cultivation Center, Nanjing.
Apomorphine provided by Sigma Company was dissolved in 0.9% NaCl (containing 0.1% vitamin C) before use, and was freshly formulated before use.
Vitamin C, F20061113, was provided by Sinopharm Chemical Reagent Co. Ltd.
Sodium chloride injection, H32026305, was provided by Xuzhou No. 5 Pharmaceutical Factory Co. Ltd.
Instruments: self-made clambering cage, chronograph.
Procedures: apomorphine induced clambering assay of mice
After 5 min of adaptation, the behavior of the mice at 10-11, 20-21, and 30-31 min after the injection of apomorphine were observed and scored. Scoring criteria: the behavior of 4 paws on the floor was scored as 0; the behavior of 2 forepaws on the cage was scored as 1; and the behavior of 4 paws on the cage was scored as 2.

[8] = Catalepsy assay in mice; conditions: both sexes, Kunming, mouse, in vivo, po, bar test at 30, 60, 90 min
Experimental: Healthy mice of Kunming breed (with half male and half female, (22±2) g) were provided by Qinglongshan Animal Cultivation Center, Nanjing.
Instruments: self-made bar-grabbing apparatus: stainless steel bar in mice box, which was 0.3 cm in diameter and […].
Corresponding solvent double-distilled water was administered intragastrically to the negative control group and the model group, corresponding positive drugs were administered intragastrically to the positive drug groups (a small amount of acetic acid was first added and then double-distilled water was added when dissolving), and corresponding dosages of compounds were administered intragastrically to the compound groups for each dosage, with the volume for intragastric administration as 0.1 ml/10 g. At 30 min, 60 min, 90 min after the intragastric administration, the two forepaws of the mice were gently placed on the bars (which were 20 cm in length, 0.3 cm in diameter, and 5.5 cm above the bench), and the hindpaws of the animals were placed on the bottom of the box. The durations of the mice to maintain the posture with the two forepaws on the bars were recorded, and 30 s of spasticity without moving was considered as the positive response. In the case the forepaws of the mice were not put down persistently, the observation was terminated at 60 s. The numbers of animals with positive response in each of the compound dosage groups were counted.

[9] = in vivo; conditions: both sexes, mouse, in vivo, po
[10] = biological target: 5HT2A receptor (Rattus norvegicus, UniProt P14842); assay: 5HT2A receptor binding assay ([3H]-Ketanserin, rat striatum membrane); conditions: read-out: 5HT2A Inhibition rate (%)
Chain of 5HT2A receptor (P14842 whole entry): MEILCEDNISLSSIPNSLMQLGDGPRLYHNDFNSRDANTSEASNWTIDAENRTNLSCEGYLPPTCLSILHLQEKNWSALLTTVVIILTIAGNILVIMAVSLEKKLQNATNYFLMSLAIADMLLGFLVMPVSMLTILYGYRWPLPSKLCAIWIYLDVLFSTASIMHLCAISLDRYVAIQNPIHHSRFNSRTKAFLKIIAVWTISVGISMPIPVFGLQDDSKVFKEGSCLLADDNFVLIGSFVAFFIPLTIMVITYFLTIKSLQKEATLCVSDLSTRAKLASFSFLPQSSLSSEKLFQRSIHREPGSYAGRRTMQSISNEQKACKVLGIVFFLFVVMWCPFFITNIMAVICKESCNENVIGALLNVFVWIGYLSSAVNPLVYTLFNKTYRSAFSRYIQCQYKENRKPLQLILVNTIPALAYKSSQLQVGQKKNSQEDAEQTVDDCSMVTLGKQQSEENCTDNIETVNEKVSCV

[11] = biological target: Histamine H1 receptor (Rattus norvegicus, UniProt P31390); assay: Histamine H1 receptor binding assay (3H-pyrilamine, rat cerebellum membrane); conditions: read-out: H1 Inhibition rate (%)
Chain of Histamine H1 receptor (P31390 whole entry): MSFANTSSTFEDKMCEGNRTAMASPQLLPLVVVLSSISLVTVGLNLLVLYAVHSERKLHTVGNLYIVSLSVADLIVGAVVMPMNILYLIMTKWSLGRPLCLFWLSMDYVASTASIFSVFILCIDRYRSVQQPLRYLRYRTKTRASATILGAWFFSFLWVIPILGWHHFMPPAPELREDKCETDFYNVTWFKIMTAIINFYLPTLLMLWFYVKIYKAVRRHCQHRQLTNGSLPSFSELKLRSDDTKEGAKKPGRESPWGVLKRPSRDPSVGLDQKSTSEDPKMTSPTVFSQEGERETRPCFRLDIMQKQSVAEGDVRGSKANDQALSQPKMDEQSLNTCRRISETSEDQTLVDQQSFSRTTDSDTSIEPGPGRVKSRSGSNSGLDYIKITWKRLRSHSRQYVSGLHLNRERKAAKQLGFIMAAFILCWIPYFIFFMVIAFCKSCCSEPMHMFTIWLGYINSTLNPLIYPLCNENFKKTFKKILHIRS
Experimental: The supernatant was discarded to give pellets, and homogenate F was added again to the pellets for washing. Centrifugation was conducted and repeated 3 times.
(2) 100 μL of membrane preparation was added into each reaction tube.

[12] = test system: KM mice; assay: in vivo
[13] = mice, po, apomorphine 1 mg/kg sc 1 hour after administration
[14] = single intragastric administration in mice, read-out: LD50 (po, mg/kg)
[15] = both, KM, mouse, in vivo, po, 7 days
[16] = single intragastric administration in mice

Compound: O=C(CCN1CCC(c2noc3cc(F)ccc23)CC1)c1cc2c3c(c1)CCC(=O)N3CCC2 [Compound 2]
- D2 Inhibition rate (%) [1]: 94.33%
- inhibition at 10 µM [2]: 93.9%
- inhibition at 10 µM [3]: 74.9%
- inhibition at 10 µM [4]: 63.9%
- α1 Inhibition rate (%) [5]: 68.75%
- ED50 [6]: 0.2 mg/kg
- ED50 [7, 13]: 0.11 mg/kg
- ED50 [8]: 3.8 mg/kg
- LD50 at 7 days [9, 14]: > 2000 mg/kg
- inhibition at 10 µM [10]: 97.9%
- inhibition at 10 µM [11]: 47.9%

Compound: O=C1CCc2cc(CCCCN3CCC(c4noc5cc(F)ccc45)CC3)cc3c2N1CCC3 [Compound 7]
- D2 Inhibition rate (%) [1]: 94.32%
- inhibition at 10 µM [2]: 99.2%
- inhibition at 10 µM [3]: 98.1%
- inhibition at 10 µM [4]: 62.2%
- α1 Inhibition rate (%) [5]: 63.69%
- ED50 [6]: 0.92 mg/kg
- ED50 [7, 13]: 0.44 mg/kg
- ED50 [8]: 24.1 mg/kg
- LD50 at 7 days [9, 14]: > 2000 mg/kg
- inhibition at 10 µM [10]: 99.4%
- inhibition at 10 µM [11]: 46.4%

Compound: O=C(CCCN1CCC(c2noc3cc(F)ccc23)CC1)c1cc2c3c(c1)CCN3C(=O)CC2 [Compound 15]
- D2 Inhibition rate (%) [1]: 103.83%
- inhibition at 10 µM [2]: 103%
- inhibition at 10 µM [3]: 99.9%
- inhibition at 10 µM [4]: 52.7%
- α1 Inhibition rate (%) [5]: 43.69%
- ED50 [6]: 0.21 mg/kg
- ED50 [7, 13]: 0.12 mg/kg
- ED50 [8]: 50 mg/kg
- LD50 at 7 days ([9]; KM): > 2000 mg/kg
- inhibition at 10 µM [10]: 104%
- inhibition at 10 µM [11]: 34%

Compound: O=C(CCCN1CCC(c2noc3cc(F)ccc23)CC1)c1cc2c3c(c1F)CCN3C(=O)CC2 [Compound 21]
- D2 Inhibition rate (%) [1]: 92.01%
- inhibition at 10 µM [2]: 93.3%
- inhibition at 10 µM [3]: 90.1%
- inhibition at 10 µM [4]: 67.9%
- α1 Inhibition rate (%) [5]: 46.78%
- inhibition at 10 µM [10]: 91.1%
- inhibition at 10 µM [11]: 54.3%

Compound: O=C(CCCN1CCC(c2noc3cc(F)ccc23)CC1)c1cc2c3c(c1F)CCC(=O)N3CC2 [Compound 22]
- D2 Inhibition rate (%) [1]: 93.12%
- inhibition at 10 µM [2]: 91.2%
- inhibition at 10 µM [3]: 91.2%
- inhibition at 10 µM [4]: 76.3%
- α1 Inhibition rate (%) [5]: 53.46%
- inhibition at 10 µM [10]: 90.2%
- inhibition at 10 µM [11]: 45.2%

Compound: O=C1CCc2ccc(OCCCCN3CCN(c4cccc(Cl)c4Cl)CC3)cc2N1 [aripiprazole]
- ED50 [6]: 0.12 mg/kg
- ED50 [7, 13]: 0.66 mg/kg
- LD50 (po, mg/kg) [12, 15]: 93 mg/kg

Compound: CN1CCN(C2=Nc3cc(Cl)ccc3Nc3ccccc32)CC1 [clozapine]
- ED50 [6]: 2.28 mg/kg
- ED50 [7, 13]: 17.9 mg/kg
- LD50 (po, mg/kg) [12, 16]: 150 mg/kg

Compound: O=C(CCCN1CCC(O)(c2ccc(Cl)cc2)CC1)c1ccc(F)cc1 [haloperidol]
- ED50 [6]: 7.42 mg/kg
- ED50 [7, 13]: 0.1 mg/kg
- LD50 (po, mg/kg) [12, 16]: 20 mg/kg

Compound: Cc1cc2c(s1)Nc1ccccc1N=C2N1CCN(C)CC1 [olanzapine]
- ED50 ([7]; 1 h): 0.11 mg/kg

Compound: OCCOCCN1CCN(C2=Nc3ccccc3Sc3ccccc32)CC1 [quetiapine]
- ED50 [6]: 10.1 mg/kg
- ED50 [7, 13]: 2.02 mg/kg
- LD50 (po, mg/kg) [12, 15]: 800 mg/kg

Compound: Cc1nc2n(c(=O)c1CCN1CCC(c3noc4cc(F)ccc34)CC1)CCCC2 [risperidone]
- ED50 ([7]; 1 h): 0.015 mg/kg
- effect on apomorphine induced clambering symptoms (in words) ([7]; compared with the model group, mice): effectively improve

Compound: O=C1Cc2cc(CCN3CCN(c4nsc5ccccc45)CC3)c(Cl)cc2N1 [ziprasidone]
- ED50 [6]: 0.56 mg/kg
- ED50 [7, 13]: 0.37 mg/kg
- LD50 at 7 days [9, 14]: > 2000 mg/kg
